Measurements from patent US20230310356A1, “COMPOSITION FOR PREVENTING, AMELIORATING, OR TREATING BRAIN DAMAGE AND MILD COGNITIVE IMPAIRMENT COMPRISING GLUTAMINE AS EFFECTIVE COMPONENT” (INDUSTRY-ACADEMIC COOPERATION FOUNDATION GYEONGSANG …, priority 2020, published 2023).

What was measured:
[1] = tested on: p47phox; experiment: Double-IHC protein expression after CIS and glutamine supplementation: p47phox; type: in vivo, mouse; details: microglial cells in infralimbic cortex and hippocampal CA1 region; glutamine supplementation diet vs stress group
Method: Control (CTL) is a group which received normal diet (common diet with nutritional balance) without any stress, CTL+Gln group is a normal diet group supplemented with glutamine (150 mg/kg of feed) and without any stress, STR is a normal diet group under stress, and STR+Gln group is a normal diet group supplemented with glutamine (150 mg/kg of feed) under stress. The stress group (STR) was individually brought by force to a restrainer for 2 hours every day (i.e., between 2 PM and 4 PM) so that the animals are applied with chronic immobilization stress for 15 days. To determine the specific changes in the brain tissues after glutamine supplementation, double staining was carried out with a cell marker so that the proteins related to a change in ROS/RNS content (i.e., iNOS; nNOS; and p47phox and p67phox as a subunit of NOX) with cell markers are analyzed by double-IHC (immunohistochemistry). Twenty-four hours after applying the last stress, the mouse was anesthetized with avertin, and perfused with PBS (pH 7.4) and 4% formaldehyde. After that, the brain was removed, fixed, and cut to a thickness with 40 μm. […]

[2] = tested on: mouse with cognitive impairment caused by chronic immobilization stress (CIS); experiment: ORT-OLT after oral administration of glutamine following cognitive impairment caused by CIS; type: in vivo; details: 2 weeks CIS, then oral glutamine 45 mg/kg bodyweight/day for 1 week
Method: After the oral administration of glutamine following an occurrence of cognitive impairment that has been caused by chronic immobilization stress (CIS), the effect of treating cognitive impairment was examined. Two weeks after applying CIS, the cognitive ability was tested by ORT-OLT. After that, while orally administering glutamine for 1 week (45 mg glutamine/kg bodyweight/day), a change in cognitive ability was examined from Day 4 (i.e., ORT-OLT were carried out from Day 4 to Day 7).

NC(=O)CC[C@H](N)C(=O)O [glutamine]
expression amount of p47phox [1]: statistically significant decrement
cognitive ability in OLT [2]: restored to the level of stress-free control group
cognitive ability in ORT [2]: restored to the level of stress-free control group
